Test [1] concerns phosphorylation of MCM2 S53 (CDC7 substrate) in colo205 cells. Put plainly: Phosphorylated MCM2 MSD electrochemiluminescence assay. Type of test: cell-based. The note with it: Homo sapiens, COLO 205; colo205 cells, 20 h incubation; read-out: pMCM2-S53 MSD Colo205 IC50. As to the method: Phosphorylated MCM2 MSD Electrochemiluminescence Assay
The effect of CDC7 inhibitors on cellular phosphorylation of the CDC7 substrate MCM2 was determined using the following protocol:
A total of 40,000 colo205 cells in 100 uL culture medium (1640 medium+10% Fetal bovine serum+1% Penicillin-Streptomycin) were plated in 96-well cell culture plates and allowed to attach for 6 hours. 3-fold serial dilutions of test compounds were prepared in completed PBS at 25× final concentration and 4 uL of each were added to the cells and incubated for 20 hours at 37° C., 5% CO2. Each concentration was tested in duplicate. After the 20 h incubation, cells were washed with 150 uL PBS and lysed with 40 uL MSD lysis buffer (obtained from Meso Scale Diagnostics) supplied with 1× complete ULTRA cocktail inhibitor (obtained from Roche). To detect phosphorylation of MCM2 S53, 30 μL of capture antibody solution (obtained from Abnova, catalog number H00004171-M01, 1:500) was added to each well of MULTI-ARRAY 96-well High Bind Plate, and incubated overnight. The antibody solution was removed, wells blocked with BSA solution and plates washed, followed by addition of 30 ul of cell lysate per well. After 2 h incubation, plates were washed. 30 μL of 1× detection antibody solution (obtained from Abcam, catalog number ab109133, 1:1000) was then added to each well and incubate for 1 hour. Plates were washed and 30 μL of 1× secondary antibody solution (obtained from MSD, catalog number R32AB-1, 1:5000) was added to each well and incubate for 1 hour. Plates were washed and 150 μL of 1× Read Buffer T was added to each well of the MSD plate. The electrochemiluminescence signal was measured on a MESO SECTOR S600 plate reader. The percentage of remaining phosphorylated MCM2 signal was calculated following the equation below.
HC (high control): Cells treated with DMSO Cpds: Cells treated with test compounds LC (low control): Cells treated with positive control CDC7 inhibitor

Test [2] concerns the target T1, Full length human CDC7 protein co-expressed with DBF4 (Homo sapiens, UniProt O00311).
T1 construct: Full length human CDC7 protein co-expressed with DBF4; purchased SignalChem (China)
Nature of the test: CDC7 kinase biochemical assay (ADP-Glo, PDKtide substrate). The note with it: 0.1 nM CDC7/DBF4, 1 uM ATP, 10 uM PDKtide, 4 h; read-out: CDC7 ADP-Glo PDKtide IC50. A digest of the protocol: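 Full-length human CDC7 co-expressed with DBF4 (0.1 nM) incubated 4 h with 1 uM ATP and 10 uM PDKtide in 40 mM Tris pH 7.5, 20 mM MgCl2, 0.1 mg/ml BSA, 50 uM DTT. ADP formed read by ADP-Glo luminescence. % inhibition scaled between DMSO (high) and reference CDC7 inhibitor (low) controls.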

Structures are written as SMILES. Bounds are passed on as bounds.

Results on four compounds are retold here after patent US20230101747A1 (Schrödinger, Inc., priority 2019, published 2023).

T1 sequence (O00311 whole entry): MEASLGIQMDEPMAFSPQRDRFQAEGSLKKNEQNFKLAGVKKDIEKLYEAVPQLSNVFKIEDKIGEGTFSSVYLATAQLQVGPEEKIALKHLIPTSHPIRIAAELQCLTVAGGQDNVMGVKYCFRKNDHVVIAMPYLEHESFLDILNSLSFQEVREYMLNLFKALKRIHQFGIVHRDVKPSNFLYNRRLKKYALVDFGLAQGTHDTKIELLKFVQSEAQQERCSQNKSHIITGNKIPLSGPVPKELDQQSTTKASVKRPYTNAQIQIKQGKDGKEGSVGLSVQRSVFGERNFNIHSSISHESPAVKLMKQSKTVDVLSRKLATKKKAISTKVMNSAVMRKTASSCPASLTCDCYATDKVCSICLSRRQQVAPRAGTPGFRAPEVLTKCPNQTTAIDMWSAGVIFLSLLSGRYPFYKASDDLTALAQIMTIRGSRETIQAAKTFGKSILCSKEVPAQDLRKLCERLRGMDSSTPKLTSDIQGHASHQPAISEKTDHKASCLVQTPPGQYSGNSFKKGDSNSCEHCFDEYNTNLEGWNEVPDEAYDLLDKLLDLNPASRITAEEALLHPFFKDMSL
T1 sequence (Q9UBU7 whole entry partner): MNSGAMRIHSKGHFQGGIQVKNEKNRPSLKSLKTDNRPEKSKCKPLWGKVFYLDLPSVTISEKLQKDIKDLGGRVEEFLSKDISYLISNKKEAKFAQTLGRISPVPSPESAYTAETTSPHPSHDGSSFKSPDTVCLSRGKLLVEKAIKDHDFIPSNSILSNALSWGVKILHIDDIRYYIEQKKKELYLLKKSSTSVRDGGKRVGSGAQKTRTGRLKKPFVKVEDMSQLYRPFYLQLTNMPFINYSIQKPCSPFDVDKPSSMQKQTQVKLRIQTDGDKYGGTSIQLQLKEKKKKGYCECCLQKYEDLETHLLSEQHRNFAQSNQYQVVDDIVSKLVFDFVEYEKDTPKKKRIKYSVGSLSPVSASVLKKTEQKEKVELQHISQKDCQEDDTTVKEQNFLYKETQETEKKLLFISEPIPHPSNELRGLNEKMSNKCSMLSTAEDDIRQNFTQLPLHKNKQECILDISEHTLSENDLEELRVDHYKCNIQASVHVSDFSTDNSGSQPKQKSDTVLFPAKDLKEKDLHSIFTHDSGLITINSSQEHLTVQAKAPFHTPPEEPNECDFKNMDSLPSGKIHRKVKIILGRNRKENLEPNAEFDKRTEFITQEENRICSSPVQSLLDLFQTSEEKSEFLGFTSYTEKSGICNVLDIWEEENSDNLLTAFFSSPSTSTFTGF

As to `O=C1N[C@@H](COC(F)F)CN2CC(F)(F)Cc3c(-c4cn[nH]c4)sc1c32` [Compound 142, (R)-7-((difluoromethoxy)methyl)-4,4-difluoro-2-(1H-pyrazol-4-yl)-4,5,7,8-tetrahydro-3H-1-thia-5a,8-diazabenzo[cd]azulen-9(6H)-one], the IC50 in test [1] is 0.005 µM; in test [2], less than 0.001 µM.

Consider `O=C1N[C@H](C2CCC2)CN2CC(F)(F)Oc3c(-c4cn[nH]c4)sc1c32` [Compound 100, (R)-7-cyclobutyl-4,4-difluoro-2-(1H-pyrazol-4-yl)-4,5,7,8-tetrahydro-3-oxa-1-thia-5a,8-diazabenzo[cd]azulen-9(6H)-one], for which the IC50 in test [1] was 0.023 µM; in test [2], less than 0.001 µM.

Consider `COC[C@@H]1CN2CC(F)(F)Cc3c(-c4cn[nH]c4)sc(c32)C(=O)N1` [Compound 115, (S)-4,4-difluoro-7-(methoxymethyl)-2-(1H-pyrazol-4-yl)-4,5,7,8-tetrahydro-3H-1-thia-5a,8-diazabenzo[cd]azulen-9(6H)-one], for which the IC50 in test [1] is 0.218 µM; in test [2], less than 0.001 µM.

`O=C1N[C@H](CO)CN2CCOc3c(-c4cn[nH]c4)sc1c32` [Compound 39, (S)-7-(hydroxymethyl)-2-(1H-pyrazol-4-yl)-4,5,7,8-tetrahydro-3-oxa-1-thia-5a,8-diazabenzo[cd]azulen-9(6H)-one]: the results for the IC50 in test [1] and in test [2] were 0.265 µM and less than 0.001 µM, respectively.
